Reference: US6458960B1, “Sulfonamide derivatives” (Nippon Kayaku Kabushiki Kaisha, priority 1997, dated 2002)
Values after ≈ are worked out from the molar mass of the structure shown.

Key:
[1] = target: T1, microtubule proteins originated from swine brain (Sus scrofa, UniProt P02550+P02554); test: Tubulin polymerization inhibitory test (turbidity measurement); assay type: biochemical; details: microtubule proteins 2 mg/ml, GTP 1 mM, 37° C. for 30 min, absorbance at 340 nm; read-out: IC50 (tubulin polymerization inhibition) (converted)
T1 construct: Microtubule proteins was extracted from swine brain by the Shelansky method; from tissue; host or cells: swine brain
T1 sequence (P02550 whole entry): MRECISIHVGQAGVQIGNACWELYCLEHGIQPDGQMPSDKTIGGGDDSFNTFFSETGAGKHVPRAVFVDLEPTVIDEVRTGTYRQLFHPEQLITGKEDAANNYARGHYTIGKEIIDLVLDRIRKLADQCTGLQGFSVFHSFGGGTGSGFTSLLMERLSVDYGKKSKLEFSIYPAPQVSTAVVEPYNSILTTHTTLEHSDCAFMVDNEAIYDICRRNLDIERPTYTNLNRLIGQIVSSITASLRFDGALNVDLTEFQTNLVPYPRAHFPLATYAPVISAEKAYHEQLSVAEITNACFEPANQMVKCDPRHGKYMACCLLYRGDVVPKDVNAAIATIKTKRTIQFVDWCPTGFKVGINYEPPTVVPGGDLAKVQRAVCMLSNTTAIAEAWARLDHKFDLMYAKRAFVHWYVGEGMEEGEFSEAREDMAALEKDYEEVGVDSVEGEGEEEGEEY
T1 sequence (P02554 whole entry): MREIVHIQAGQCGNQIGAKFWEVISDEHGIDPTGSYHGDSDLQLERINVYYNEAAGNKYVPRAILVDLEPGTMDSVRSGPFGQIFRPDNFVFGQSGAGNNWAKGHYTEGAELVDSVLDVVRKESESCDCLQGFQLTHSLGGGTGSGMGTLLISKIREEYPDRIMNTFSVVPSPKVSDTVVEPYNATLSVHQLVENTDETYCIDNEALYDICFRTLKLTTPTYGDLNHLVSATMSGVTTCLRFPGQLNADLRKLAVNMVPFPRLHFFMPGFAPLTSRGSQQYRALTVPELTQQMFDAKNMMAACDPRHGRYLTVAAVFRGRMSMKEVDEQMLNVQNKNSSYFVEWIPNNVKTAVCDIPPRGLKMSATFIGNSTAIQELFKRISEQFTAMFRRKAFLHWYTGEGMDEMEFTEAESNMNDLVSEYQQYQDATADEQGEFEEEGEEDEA
Protocol: Tubulin polymerization inhibitory test using microtubule proteins originated from swine brain: Microtubule proteins was extracted from swine brain by the Shelansky method(Tanpakusitu jikkenhou, Zoku-Seikagaku Jikken Kouza, Vol.6, “Structure and Function of Cytoskeleton” (1st Vol.), Tokyo Kagaku Dojin). Polymerization of microtubule proteins was assayed by turbidity measurement.
Change in turbidity can be measured by an absorptiometer. The compounds of the present invention were dissolved in dimethylsulfoxide to prepare their test solutions. To 245 μl of a RB solution containing microtubule proteins(2 mg/ml)and GTP(1 mM) was added 5μl of either an above test solution or dimethylsulfoxide to prepare a sample, which was incubated at 37° C. for 30 min. […] Absorbance at 340 nm of the compound was previously measured.
Inhibitory Rate(%)=[1−(T−Cmin)/(Cmax−Cmin)]×100
where T is absorbance of the incubated sample with a test compound, Cmax is absorbance of the incubated sample without the compound, and Cmin is the non-incubated sample without the compound.

[2] = tested on: A2780 (Humane Ovarian Cancer Cell); test: Anti-tumor in vitro test using A2780 (MTT); assay type: cell-based; details: Homo sapiens, A2780, 72 h, 3 days incubation, absorbance at 540 nm, read-out: IC50 (A2780 growth inhibition)
Protocol: A2780 cells that were suspended on a RPMI 1640 culture medium containing 10% calf serum, penicillin (50 U/ml), and streptomycin (50 μg/ml were seeded in a 96 well flat microplate by 1000 cells (0.2 ml) well, and cultured in a 5% carbon dioxide atmospheric incubator at 37° C. for 1 day. The compounds of the present invention that were dissolved in dimetylsulfoxide anddiluted with a RPMI 1640 containing 10% calf serum to prepare the samples, provided that dimetylsulfoxide was restricted to 0.2% and below in concentration.
The Supernatant liquids of the above A2780 cells wells were removed by aspiration, and then each 0. 2 ml of the prepared samples were added to the wells, which were incubated in a 5% carbon dioxide atmospheric incubator at 37° C. for 3 days. After the incubation, each 0.01 ml of MTT solutions(3-(4,5-dimethylthiazole-2-yl)-2,5-dipheny-ltetra zolium bromide, 5 mg/ml) were added to the wells, which were incubated for another 2 hrs. After the supernatant liquids in the wells were removed by aspiration, the formazans formed in the wells were dissolved in 0.1 ml of dimetylsulfoxide, and absorbances at 540 nm were measured by a micro plate reader to determine indices of live cells counts in the wells.
Inhibitory Rate(%)=[(C−T)/C]×100
where T is absorbance in the well with a test compound and C is absorbance in the well without the compound.

[3] = tested on: collagen-induced arthritis in mice; test: Prophylactic experiment of collagen-induced arthritis in mice; assay type: in vivo; details: last day of test
Protocol: The suspension of M. tuberculosis H37RA in Freund […] adjuvant (2 mg/ml) was mixed with 0.3% typeII collagen (extracted from bovine articular cartilage, Collagen Gijutsu KensyU Kai) in their equal amounts to form an emulsion, 0.1 ml of which was injected subcutaneously into the base of the tail of mice to sensitize it. After twenty-one days, 0.3% type II collagen was diluted with physiological saline solution to the one sixth concentration of the solution, 0.2 ml of which was injected intraperitoneally to sensitize secondarily. The mice that the first sensitizations caused to fall into arthritis were excluded from the test. The suspensions of the compounds(in the Example 13, 27, and 28) in 0.5% sodium carboxy methylcellulose (CMC—Na) were administrated orally to the test group mice once a day for 5 weeks from the day after the second sensitization. 0.5% CMC—Na solutions were administrated to the control group mice to be compared with. Each group was composed of eight mice. […] Scores and their standards are as follows.
1: Tumefaction or rubor in only one finger(or heel)
2: Tumefaction or rubor in two or above fingers (or heels) or in parts of fore (or hind) paw(s)
3: Tumefaction or rubor in the wholes of fore (or hind) paw(s) including joints
4: Ankylosis in the joints of finger(s) (or heel(s)) or fore (or hind) paw(s)

[4] = 50 mg/kg orally once a day for 5 weeks

`COc1ccc(S(=O)(=O)Nc2ccccc2NC(=O)c2cn(C)nc2C)cc1` [Example 2, N-[2-(4-Methoxybenzenesulfonamide)phenyl]-3-dimethyl-4-(1H-pyrazole)carboxamide] showed an IC50 [1] of 89.9 µM and an IC50 [2] of 0.58 µg/mL (≈ 1.45 µM).
`COc1ccc(S(=O)(=O)Nc2ccccc2NC(=O)C2CSCN2)cc1.Cl` (racemic) [Example 15, (±)-N-[2-(4-Methoxybenzenesulfonamide)phenyl]-4-thiazolidine Carboxamide HCl Salt] showed an IC50 [1] of 4.3 µM and an IC50 [2] of 0.025 µg/mL.
`Cc1oncc1C(=O)Nc1ccccc1NS(=O)(=O)c1ccc(F)cc1` [Example 9, N-[2-(4-Fluorobenzenesulfonamide)phenyl]-5-methyl-4-isoxazole Carboxamide] was tested, and the IC50 [1] was 400 µM and the IC50 [2] was 13 µg/mL (≈ 34.6 µM).
With `COc1ccc(S(=O)(=O)Nc2ccccc2NC(=O)C2CC2)cc1` [Example 23, N-[2-(4-Methoxybenzenesulfonamide)phenyl]-cyclopropyl Carboxamid] the IC50 [1] was 3.46 µM and the IC50 [2] was 0.006 µg/mL (≈ 0.0173 µM).
For `COc1ccc(S(=O)(=O)Nc2ccccc2NC(=O)c2csc(C)n2)cc1` [Example 3, N-[2-(4-Methoxybenzenesulfonamide)phenyl]-2-methyl-4-thiazole Carboxamide], the IC50 [1] was 94.2 µM and the IC50 [2] was 0.22 µg/mL (≈ 0.545 µM).
Compound `COc1ccc(S(=O)(=O)Nc2ccccc2NC(=O)c2nc(C)oc2C)cc1` [Example 5, N-[2-(4-Methoxybenzenesulfonamide)phenyl]-2,5-dimethyl-4-oxazole Carboxamide] has an IC50 [2] of 7.2 µg/mL (≈ 17.9 µM).
Compound `COc1ccc(S(=O)(=O)Nc2ccccc2NC(=O)c2csnc2C)cc1` [Example 4, N-[2-(4-Methoxybenzenesulfonamide)phenyl]-3-methyl-4-isothiazole Carboxamide] has an IC50 [1] of 3.47 µM and an IC50 [2] of 0.017 µg/mL (≈ 0.0421 µM).
With `CCc1onc(C)c1C(=O)Nc1ccccc1NS(=O)(=O)c1ccc(OC)cc1` [Example 28, N-[2-(4-Methoxybenzenesulfonamide)phenyl]-5-ethyl-3-methyl-4-isoxazole Carboxamide] the IC50 [1] was 3.13 µM, the IC50 [2] was 0.013 µg/mL (≈ 0.0313 µM) and the “Averaged score (arthritis, 0 to 4 per limb, maximum 16)” value [3, 4] was 3.0 ± 1.1.
With `CCc1noc(C)c1C(=O)Nc1ccccc1NS(=O)(=O)c1ccc(OC)cc1` [Example 27, N-[2-(4-Methoxybenzenesulfonamide)phenyl]-3-ethyl-5-methyl-4-isoxazole Carboxamide] the IC50 [1] was 4.45 µM, the IC50 [2] was 0.034 µg/mL (≈ 0.0818 µM) and the “Averaged score (arthritis, 0 to 4 per limb, maximum 16)” value [3, 4] was 1.7 ± 1.1.
`CCc1oncc1C(=O)Nc1ccccc1NS(=O)(=O)c1ccc(OC)cc1` [Example 14, N-[2-(4-Methoxybenzenesulfonamide)phenyl]-5-ethyl-4-isoxazole Carboxamide] was tested, and the IC50 [1] was 4.11 µM and the IC50 [2] was 0.036 µg/mL (≈ 0.0897 µM).
`COc1ccc(S(=O)(=O)Nc2ccccc2NC(=O)c2c(-c3ccccc3)noc2C)cc1` [Example 31, N-[2-(4-Methoxybenzenesulfonamide)phenyl]-5-methyl-3-phenyl-4-isoxazole Carboxamide] gave an IC50 [2] of 0.3 µg/mL (≈ 0.647 µM).
Work on `COc1ccc(S(=O)(=O)Nc2ccccc2NC(=O)C2CCCC2)cc1` [Example 25] yielded an IC50 [1] of 4.14 µM and an IC50 [2] of 0.05 µg/mL (≈ 0.134 µM).
For `Cc1oncc1C(=O)Nc1ccccc1NS(=O)(=O)c1ccccc1` [Example 8, N-[2-(Benzenesulfonamide)phenyl]-5-methyl-4-isoxazole Carboxamide], the IC50 [1] was 644 µM and the IC50 [2] was 6.7 µg/mL (≈ 18.7 µM).
For `CCc1noc(CC)c1C(=O)Nc1ccccc1NS(=O)(=O)c1ccc(OC)cc1` [Example 29, N-[2-(4-Methoxybenzenesulfonamide)phenyl]-3,5-diethyl-4-isoxazole Carboxamide], the IC50 [1] was 9.2 µM and the IC50 [2] was 0.14 µg/mL (≈ 0.326 µM).
For `COc1ccc(S(=O)(=O)Nc2ccccc2NC(=O)c2c(C)noc2-c2ccccc2)cc1` [Example 32, N-[2-(4-Methoxybenzenesulfonamide)phenyl]-3-methyl-5-phenyl-4-isoxazole Carboxamide], the IC50 [2] was 0.62 µg/mL (≈ 1.34 µM).
With `COc1ccc(S(=O)(=O)Nc2ccccc2NC(=O)C2CCCCC2)cc1` [Example 22, N-[2-(4-Methoxybenzenesulfonamide)phenyl]-cyclohexyl Carboxamide] the IC50 [1] was 4.89 µM and the IC50 [2] was 0.14 µg/mL (≈ 0.36 µM).
`COc1ccc(S(=O)(=O)Nc2ccccc2NC(=O)c2cnoc2C)cc1` [Example 1, N-[2-(4-Methoxybenzenesulfonamide)phenyl]-5-methyl-4-isoxazole Carboxamide] gave an IC50 [1] of 3.1 µM and an IC50 [2] of 0.023 µg/mL (≈ 0.0594 µM).
In the case of `COc1ccc(S(=O)(=O)Nc2ccccc2NC(=O)c2cn(C)cn2)cc1` [Example 6, N-[2-(4-Methoxybenzenesulfonamide)phenyl]-1-methyl-1H-imidazole-4-carboxamide], the IC50 [1] is reported as 101 µM and the IC50 [2] is reported as 0.14 µg/mL (≈ 0.362 µM).
In the case of `COc1ccc(S(=O)(=O)Nc2ccccc2NC(=O)c2c(C)noc2C)cc1` [Example 13, N-[2-(4-Methoxybenzenesulfonamide)phenyl]-3,5-dimethyl-4-isoxazole Carboxamide], the IC50 [1] is reported as 3.49 µM, the IC50 [2] is reported as 0.01 µg/mL (≈ 0.0249 µM) and the “Averaged score (arthritis, 0 to 4 per limb, maximum 16)” value ([3]; 25 mg/kg orally once a day for 5 weeks) is reported as 2.3 ± 0.8. For the same compound, the “Averaged score (arthritis, 0 to 4 per limb, maximum 16)” value [3, 4] was 0.4 ± 0.4.
`COc1ccc(S(=O)(=O)Nc2ccccc2NC(=O)[C@@H]2CCCN2)cc1.Cl` [Example 12, N-[2-(4-Methoxybenzenesulfonamide)phenyl]-(L)-prolinamide HCl Salt] was tested, and the IC50 [2] was 9.7 µg/mL.
`COc1ccc(S(=O)(=O)Nc2ccccc2NC(=O)c2cccn2C)cc1` [Example 26, N-[2-(4-Methoxybenzenesulfonamide)phenyl]-N-methyl-2-pyrrole Carboxamide] was tested, and the IC50 [1] was 4.93 µM and the IC50 [2] was 0.034 µg/mL (≈ 0.0882 µM).
Work on `COc1ccc(S(=O)(=O)Nc2ccccc2NC(=O)c2c(C)noc2C(C)C)cc1` [Example 30, N-[2-(4-Methoxybenzenesulfonamide)phenyl]-5-isopropyl-3-methyl-4-isoxazole Carboxamide] yielded an IC50 [1] of 7.68 µM and an IC50 [2] of 0.16 µg/mL (≈ 0.373 µM).
Work on `COc1ccc(S(=O)(=O)Nc2ccccc2NC(=O)C2CCC2)cc1` [Example 24, N-(2-(4-Methoxybenzenesulfonamide)phenyl]-cyclobutyl Carboxamid] yielded an IC50 [1] of 3.19 µM and an IC50 [2] of 0.006 µg/mL (≈ 0.0166 µM).
`COc1ccc(S(=O)(=O)Nc2ccccc2NC(=O)[C@H]2CCCN2)cc1.Cl` [Example 17] gave an IC50 [2] of 1.4 µg/mL.
`COc1ccc(S(=O)(=O)Nc2ccccc2NC(=O)c2cnoc2C)cc1OC` [Example 11, N-[2-(3,4-Dimethoxybenzenesulfonamide)phenyl]-5-methyl-4-isoxazole Carboxamide] was tested, and the IC50 [1] was 359 µM and the IC50 [2] was 0.68 µg/mL (≈ 1.63 µM).
`COc1ccc(S(=O)(=O)Nc2ccccc2NC(=O)c2ncoc2C)cc1` [Example 21, N-[2-(4-Methoxybenzenesulfonamide)phenyl]-5-methyl-4-oxazole Carboxamide] was tested, and the IC50 [1] was 12.1 µM and the IC50 [2] was 0.079 µg/mL (≈ 0.204 µM).
In the case of `Cc1ccc(S(=O)(=O)Nc2ccccc2NC(=O)c2cnoc2C)cc1` [Example 7, N-[2-(p-Toluenesulfonamide)phenyl]-5-methyl-4-isoxazole Carboxamide], the IC50 [1] is reported as 13.7 µM and the IC50 [2] is reported as 0.2 µg/mL (≈ 0.538 µM).
`COc1ccc(S(=O)(=O)Nc2ccccc2NC(=O)C2CCCCN2)cc1.Cl` (racemic) [Example 20, (±)-N-[2-4-Methoxybenzenesulfonamide)phenyl]-2piperidine Carboxamide HCl Salt] was tested, and the IC50 [2] was 6.8 µg/mL.
